From patent publication US20090270391A1, “THIENOPYRIDINE DERIVATIVE, OR QUINOLINE DERIVATIVE, OR QUINAZOLINE DERIVATIVE, HAVING c-MET AUTOPHOSPHORYLATION INHIBITING POTENCY” (Kirin Pharma Kabushiki Kaisha, priority 2005, published 2009)

Key:
c-Met [1] = biological target: T1, c-Met (Homo sapiens, UniProt P08581); test: c-Met autophosphorylation inhibition in culture cells MKN45 (immunoprecipitation/blot); format: cell-based; design: endogenous in cells; host or cells: MKN45
Text: (§1) MKN45 (human poorly differentiated gastric cancer cell line, Riken) and A431 (human epithelioid cancer cell line, JCRB) were used for the measurement of c-Met autophosphorylation inhibition, and HUVEC (human vascular endothelial cells, KURABO INDUSTRIES LTD.) was used for the measurement of KDR autophosphorylation inhibitory activity.
(§2) MKN45 (2.5×10^5/well) or A431 (8.5×10^5/well) was inoculated into wells, containing RPMI (GIBCO) containing 0.1% fetal calf serum (JRH Biosciences), in a 6-well plate (Collagen Type I coated Plate, 4810-010, IWAKI), and, 24 hr after the inoculation, the medium was replaced with an RPMI medium containing 0.10% fetal calf serum. Thereafter, compound A was added, followed by incubation for 90 min under conditions of 37° C. and 5% CO2. The culture was removed without stimulation for MKN45 and after stimulation for 10 min with 50 ng/ml HGF (294-HG, R&D SYSTEMS) for A431. A solubilizing buffer solution (20 mM HEPES (pH 7.4), 150 mM NaCl, 0.2% TritonX-100, […], 5 mM sodium orthovanadylate, 5 mM disodium ethylenediaminetetraacetate, and 2 mM Na4P2O7) (500 μl/well) was added to satisfactorily solubilize the cells. […] The film was quantified by Scion Image, and the IC50 value was determined with an analysis software Graph Pad Prism Ver.4 (Graph Pad Software, Inc.).
Target sequence in this assay (P08581 25-1390): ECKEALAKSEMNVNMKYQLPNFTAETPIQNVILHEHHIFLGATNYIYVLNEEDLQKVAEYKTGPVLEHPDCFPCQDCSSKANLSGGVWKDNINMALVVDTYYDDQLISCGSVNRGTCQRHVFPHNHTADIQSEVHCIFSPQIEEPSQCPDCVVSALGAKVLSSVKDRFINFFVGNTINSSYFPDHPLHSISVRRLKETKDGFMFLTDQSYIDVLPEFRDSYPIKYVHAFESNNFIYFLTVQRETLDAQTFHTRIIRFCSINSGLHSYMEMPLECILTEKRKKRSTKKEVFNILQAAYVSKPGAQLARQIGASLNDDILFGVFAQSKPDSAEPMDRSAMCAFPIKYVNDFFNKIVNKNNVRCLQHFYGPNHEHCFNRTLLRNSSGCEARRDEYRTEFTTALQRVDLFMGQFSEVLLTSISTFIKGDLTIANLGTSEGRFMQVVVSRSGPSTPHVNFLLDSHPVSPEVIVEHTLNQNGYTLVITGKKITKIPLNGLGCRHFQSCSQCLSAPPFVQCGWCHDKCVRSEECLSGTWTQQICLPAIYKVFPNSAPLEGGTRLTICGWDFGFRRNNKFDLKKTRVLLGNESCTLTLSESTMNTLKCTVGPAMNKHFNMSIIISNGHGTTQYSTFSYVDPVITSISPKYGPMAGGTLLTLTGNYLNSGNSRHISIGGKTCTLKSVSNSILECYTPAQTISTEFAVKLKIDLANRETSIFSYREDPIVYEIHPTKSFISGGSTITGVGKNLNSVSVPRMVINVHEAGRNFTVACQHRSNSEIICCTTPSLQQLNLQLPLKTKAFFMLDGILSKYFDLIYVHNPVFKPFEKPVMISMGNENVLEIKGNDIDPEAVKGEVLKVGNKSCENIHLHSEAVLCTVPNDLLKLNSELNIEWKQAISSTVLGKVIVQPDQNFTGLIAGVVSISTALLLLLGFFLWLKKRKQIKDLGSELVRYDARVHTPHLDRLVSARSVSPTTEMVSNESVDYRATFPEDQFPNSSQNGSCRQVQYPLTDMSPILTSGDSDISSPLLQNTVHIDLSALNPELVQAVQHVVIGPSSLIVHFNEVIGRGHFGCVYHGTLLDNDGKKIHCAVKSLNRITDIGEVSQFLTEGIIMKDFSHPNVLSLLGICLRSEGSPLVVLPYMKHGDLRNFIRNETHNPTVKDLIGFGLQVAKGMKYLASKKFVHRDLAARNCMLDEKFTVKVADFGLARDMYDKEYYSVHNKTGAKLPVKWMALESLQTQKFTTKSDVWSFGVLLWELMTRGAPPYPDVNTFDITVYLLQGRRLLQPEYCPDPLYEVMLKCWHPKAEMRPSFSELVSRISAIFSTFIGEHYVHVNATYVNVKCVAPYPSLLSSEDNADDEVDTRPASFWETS

c-Met [2] = biological target: T1, c-Met; test: c-Met enzyme inhibitory activity (32P-ATP, SDS-PAGE); format: biochemical; design: purchased upstate 14-526
Experimental: (§3) c-Met protein (upstate, Lot: 25735AU, catalog code 14-526) was diluted with EDB (20 mM MOPS (pH 7.0), 1 mM EDTA, 0.01% Brij 35, 5% glycerol, 0.1% β-mercaptoethanol, and 1 mg/ml BSA) to 10 ng/μl. The KDR protein (812-1346AA) was prepared from SF21 insect cells (affinity purification, 12.4 μg/μl) according to the protocol of Invitrogen (Bac to Bac (tradename) baculovirus expression system) and was diluted with EDB to 248 ng/μl. A five-fold concentration of a reaction buffer (40 mM MOPS (pH 7.4), 1 mM EDTA) (5 μl), a ten-fold concentration of compound A (5 μl), 250 mM MnCl2 (2.5 μl), sterilized distilled water (2.5 μl), c-Met protein or KDR protein (5 μl) was mixed thereinto under ice cooling. An ATP reaction solution (25 mM ATP, 10 μci/μl γ-^32P-ATP (1 μl), 25 mM Mg (OAc)2, and 1.25 mM Hepes (pH7.4)) (10 μl) was added, and the mixture was allowed to react at 37° C. for 10 min. A tris-SDS β-ME sample treatment liquid (301780, Daiichi Kagaku Inc.) (10 μl) was added to stop the reaction. The reaction solution was boiled at 95° C. for 5 min and was then subjected to SDS-PAGE. The gel after the migration was packed, and an imaging plate (Fuji Film) was applied to the gel for transfer, followed by analysis with Typhoon (Amersham Biosciences). The IC50 value was calculated with a software for analysis Graph Pad Prism Ver.4 (Graph Pad Software, Inc.).
Target sequence in this assay (P08581 974-1390 limits assumed): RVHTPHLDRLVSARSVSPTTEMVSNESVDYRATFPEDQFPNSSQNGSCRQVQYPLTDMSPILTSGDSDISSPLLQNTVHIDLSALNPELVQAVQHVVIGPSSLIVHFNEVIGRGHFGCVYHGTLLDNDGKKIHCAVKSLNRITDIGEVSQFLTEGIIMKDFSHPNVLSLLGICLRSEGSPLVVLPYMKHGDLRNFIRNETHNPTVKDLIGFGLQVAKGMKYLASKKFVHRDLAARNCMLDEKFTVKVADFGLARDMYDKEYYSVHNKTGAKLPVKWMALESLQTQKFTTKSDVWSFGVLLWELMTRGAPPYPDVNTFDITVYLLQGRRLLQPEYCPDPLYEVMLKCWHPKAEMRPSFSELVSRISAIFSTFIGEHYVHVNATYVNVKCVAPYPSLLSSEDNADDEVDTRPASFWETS

c-Met [3] = biological target: T1, c-Met; test: c-Met autophosphorylation inhibition in culture cells A431, HGF stimulated (immunoprecipitation/blot); format: cell-based; design: endogenous in cells; details: 50 ng/ml HGF
Text: as §1, §2
Target sequence in this assay (P08581 25-1390): as the sequence (P08581 25-1390) above

c-Met [4] = biological target: T1, c-Met; test: c-Met autophosphorylation inhibitory activity (general statement)
Target sequence in this assay (P08581 25-1390): as above

KDR [5] = biological target: T2, KDR (Homo sapiens, UniProt P35968); test: KDR autophosphorylation inhibitory activity (general statement)
Target sequence in this assay (P35968 20-1356): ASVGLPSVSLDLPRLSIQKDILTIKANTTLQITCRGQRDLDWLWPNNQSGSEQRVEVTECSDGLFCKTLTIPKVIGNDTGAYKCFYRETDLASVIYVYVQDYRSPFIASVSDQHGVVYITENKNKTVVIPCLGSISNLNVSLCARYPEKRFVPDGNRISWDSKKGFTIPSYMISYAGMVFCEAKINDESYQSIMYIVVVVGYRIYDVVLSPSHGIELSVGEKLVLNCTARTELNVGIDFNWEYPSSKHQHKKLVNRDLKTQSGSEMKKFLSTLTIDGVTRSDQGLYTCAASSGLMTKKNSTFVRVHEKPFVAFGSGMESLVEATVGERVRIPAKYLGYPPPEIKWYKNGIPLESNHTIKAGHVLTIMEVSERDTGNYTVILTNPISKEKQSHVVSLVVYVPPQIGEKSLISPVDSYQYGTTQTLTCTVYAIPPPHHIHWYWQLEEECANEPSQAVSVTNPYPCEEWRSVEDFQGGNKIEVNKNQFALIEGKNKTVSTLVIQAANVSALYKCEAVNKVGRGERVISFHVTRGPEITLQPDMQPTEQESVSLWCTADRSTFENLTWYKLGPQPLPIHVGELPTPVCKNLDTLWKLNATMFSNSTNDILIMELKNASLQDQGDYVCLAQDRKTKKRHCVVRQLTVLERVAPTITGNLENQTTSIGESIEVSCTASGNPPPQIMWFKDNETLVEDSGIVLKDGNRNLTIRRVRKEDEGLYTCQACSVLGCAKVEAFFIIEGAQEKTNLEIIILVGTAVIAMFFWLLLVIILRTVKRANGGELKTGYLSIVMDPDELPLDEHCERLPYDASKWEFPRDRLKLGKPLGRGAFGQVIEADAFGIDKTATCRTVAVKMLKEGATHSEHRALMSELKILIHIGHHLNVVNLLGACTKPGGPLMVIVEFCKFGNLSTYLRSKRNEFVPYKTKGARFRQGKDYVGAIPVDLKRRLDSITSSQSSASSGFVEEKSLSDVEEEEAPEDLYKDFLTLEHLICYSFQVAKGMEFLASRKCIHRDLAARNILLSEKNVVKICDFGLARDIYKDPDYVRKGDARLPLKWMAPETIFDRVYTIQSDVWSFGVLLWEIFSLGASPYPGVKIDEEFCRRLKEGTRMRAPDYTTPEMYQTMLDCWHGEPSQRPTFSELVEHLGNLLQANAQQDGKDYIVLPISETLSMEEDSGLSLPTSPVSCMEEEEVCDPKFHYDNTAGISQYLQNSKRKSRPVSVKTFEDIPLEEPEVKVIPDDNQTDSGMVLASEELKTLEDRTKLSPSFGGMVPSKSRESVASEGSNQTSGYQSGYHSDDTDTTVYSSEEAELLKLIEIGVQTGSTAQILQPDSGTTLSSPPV

[6] = tested on: Human gastric cancer cell line NU-GC-4; test: Tumor growth inhibitory activity against human gastric cancer cell line NU-GC-4 in nude mice; format: in vivo; details: 25 mg/kg oral once a day, 10th day
Experimental: Human gastric cancer cell line NU-GC-4 (available from Cell Resource Center for Biomedical Research, Institute of Development Aging and Cancer, Tohoku University) is transplanted into nude mice. When the tumor volume becomes about 100 mm^3, the mice are grouped so that the groups each consist of four mice and have an even average tumor volume. The test compound suspended in 0.5% methylcellulose is orally administered once a day for 9 days.
Only 0.5% methylcellulose is administered to the control group in the same manner as in the test groups. The tumor growth inhibition rate (TGIR) is calculated as follows: The tumor growth inhibition rate (TGIR)=(1−TX/CX)×100 wherein CX represents the volume of tumor at day X for the control group and TX represents the volume of tumor for test compound administration groups, when the tumor volume at the day of the start of the administration is presumed to be 1.

KDR [7] = biological target: T2, KDR; test: KDR enzyme inhibitory activity (32P-ATP, SDS-PAGE); format: biochemical; design: The KDR protein (812-1346AA) was prepared from SF21 insect cells; made in house; host or cells: SF21 insect cells (Bac to Bac baculovirus system)
Experimental: as §3
Target sequence in this assay (P35968 812-1346): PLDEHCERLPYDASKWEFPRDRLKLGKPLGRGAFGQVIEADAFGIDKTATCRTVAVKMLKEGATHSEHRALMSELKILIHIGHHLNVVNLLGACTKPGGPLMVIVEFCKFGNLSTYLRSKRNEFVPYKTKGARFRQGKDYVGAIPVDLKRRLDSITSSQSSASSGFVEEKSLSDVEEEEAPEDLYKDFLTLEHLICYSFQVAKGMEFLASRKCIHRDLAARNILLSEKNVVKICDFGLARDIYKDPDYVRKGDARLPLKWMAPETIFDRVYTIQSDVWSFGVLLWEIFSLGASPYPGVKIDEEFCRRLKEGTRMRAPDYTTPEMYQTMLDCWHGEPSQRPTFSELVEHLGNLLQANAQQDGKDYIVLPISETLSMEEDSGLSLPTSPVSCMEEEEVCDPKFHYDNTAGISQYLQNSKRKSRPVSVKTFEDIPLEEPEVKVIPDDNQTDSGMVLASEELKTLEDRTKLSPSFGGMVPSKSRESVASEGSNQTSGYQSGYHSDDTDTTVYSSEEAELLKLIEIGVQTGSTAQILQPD

[8] = Human liver microsome test; format: in vitro ADME; details: data not shown
[9] = tested on: mouse lower limb bone growth plate; test: Influence on mouse lower limb bone growth plate; format: in vivo; details: nude mice, 50 mg/kg oral once a day for 4 weeks
Experimental: Nude mice (BALB-nu/nu, female, four weeks old, Charles River Japan, Inc.) were preliminarily raised for one week, and the mice were grouped so that each group consisted of 8 mice. Compound A (50 mg/kg) suspended in 0.5% methylcellulose was orally administered once a day for 4 weeks to the compound A group. On the other hand, 0.5% methylcellulose was administered to the control group in the same manner as in the compound A group.
On the 29th day after the initiation of the administration, the animals were killed from ether anesthesia. A lower limb bone around the knee region was removed, was fixed in buffer formalin, was deashed and was then subjected to paraffin embedding. A thin sliced sample was dyed with HE, and the knee bone was photographed, and whether or not thickening of the bone growth plate occurs was quantitatively determined with an image analysis software (WinROOF Ver5, MITANI CORPORATION).

KDR [10] = biological target: T2, KDR; test: KDR autophosphorylation inhibition in HUVEC, VEGF stimulated; format: cell-based; design: endogenous in cells; host or cells: HUVEC; details: 50 ng/ml VEGF
Text: as §1
Target sequence in this assay (P35968 20-1356): as the sequence (P35968 20-1356) above
HUVEC was inoculated into an EGM medium (KURABO INDUSTRIES LTD.) so that the number of cells was 2×10^6/100-mm Petri dish (Collagen coated Dish, 4020-010, IWAKI), and, 24 hr after the inoculation, the EGM medium was replace with an EBM medium containing 0.5% fetal calf serum (KURABO INDUSTRIES LTD.). Compound A was added, and the mixture was incubated for 90 min. After stimulation with 50 ng/ml of VEGF (100-20, PeproTech, Inc.) for 5 min, the culture was removed. The residue was subjected to immunoprecipitation with a KDR antibody (Flk-1, C-1158, Santa Cruz) by the above c-Met autophosphorylation inhibitory activity measuring method, followed by SDS-PAGE to measure KDR autophosphorylation inhibitory activity.

COc1cc(Oc2ccnc3cc(OC)c(OC)cc23)ccc1NC(=S)NC(=O)Cc1ccc(F)cc1 [Compound A, N-[4-{(6,7-dimethoxy-4-quinolyl)oxy}-2-methoxyphenyl]-N′-[2-(4-fluorophenyl)acetyl]thiourea]
IC50 (c-Met [1]; c-Met (MKN45), without stimulation): 0.0113 µM | c-Met/KDR selectivity (c-Met [1]; c-Met versus KDR autophosphorylation in culture cells): high | IC50 (c-Met [2]): 0.0155 µM | IC50 (c-Met [3]): 0.0093 µM | c-Met autophosphorylation inhibitory activity (c-Met [4]): high | KDR autophosphorylation inhibitory activity (KDR [5]): low | TGIR (tumor growth inhibition rate) [6]: 78% | IC50 (KDR [7]): ≥ 1 µM | metabolic rate [8]: proper metabolic rate | thickening of the bone growth plate [9]: did not induce the thickening of the bone growth plate | bone growth plate area ([9]; versus control group): no significant difference | IC50 (KDR [10]): ≥ 1 µM
